Measurements published in the NIST ThermoML archive (doi:10.1016/j.tca.2011.06.020).
± gives the expanded uncertainty stated by the source.

Experiments:
[1] = 101 kPa, Liquid; for speed of sound: Sing-around technique in a fixed-path interferometer; for mass density: Vibrating tube method
[2] = xn = mol fraction of the nth substance listed; conditions: 101 kPa, Liquid; for speed of sound: Sing-around technique in a fixed-path interferometer; for mass density: Vibrating tube method

CNC=O [N-methylformamide]
[1]
Conditions	mass density [kg/m3]	speed of sound [m/s]
298.15 K	999.004 ± 0.84	1432.9 ± 2.9
303.15 K	994.653 ± 0.83	1417.7 ± 2.9
308.15 K	990.302 ± 0.83	1402.5 ± 2.9

C1CCOCC1 [tetrahydropyran] + Cc1ccccc1N
[2], x2 = 0
Conditions	mass density [kg/m3]	speed of sound [m/s]
298.15 K	879.136 ± 0.7	1269.9 ± 2.9
303.15 K	873.992 ± 0.7	1246.8 ± 2.9
308.15 K	868.831 ± 0.69	1224.5 ± 2.9

CNC=O [N-methylformamide] + Cc1ccccc1N
[2], x2 = 0
Conditions	mass density [kg/m3]	speed of sound [m/s]
298.15 K	999.004 ± 0.84	1432.9 ± 2.9
303.15 K	994.653 ± 0.83	1417.7 ± 2.9
308.15 K	990.302 ± 0.83	1402.5 ± 2.9

C1CCOCC1 [tetrahydropyran]
[1]
Conditions	mass density [kg/m3]	speed of sound [m/s]
298.15 K	879.136 ± 0.7	1269.9 ± 2.9
303.15 K	873.992 ± 0.7	1246.8 ± 2.9
308.15 K	868.831 ± 0.69	1224.5 ± 2.9

C1CCOCC1 [tetrahydropyran] + CNC=O
[2], x1 = 1
Conditions	mass density [kg/m3]	speed of sound [m/s]
298.15 K	879.136 ± 0.7	1269.9 ± 2.9
303.15 K	873.992 ± 0.7	1246.8 ± 2.9
308.15 K	868.831 ± 0.69	1224.5 ± 2.9

Cc1ccccc1N [2-methylaniline]
[1]
Conditions	mass density [kg/m3]	speed of sound [m/s]
298.15 K	994.351 ± 0.23	1602.6 ± 2.4
303.15 K	990.224 ± 0.45	1577.8 ± 2.6
308.15 K	986.069 ± 0.23	1558.4 ± 2.4
